These are literature values, as cited in patent US20110218104A1, “Biodiesel Solvents in Pesticide Compositions” (AUBURN UNIVERSITY, priority 2010, published 2011).

The structures appear in SMILES notation.

For the series the following is noted: Merck Index, 1989.

With `NC(N)=O` [urea], the solubility in glycerin result is reported as “considerable solubility”.
